From ChEMBL document CHEMBL1140553, “Efficient synthesis and in vitro cytostatic activity of 4-substituted triazolyl-nucleosides” (Bioorg Med Chem Lett, 2007)

Key:
Type in all cases: functional, cell-based
CCRF-CEM = test: Cytostatic activity against human CEM cells
L1210 = test: Cytostatic activity against mouse L1210 cells
MOLT-4 = test: Cytostatic activity against human Molt4/C8 cells

CC(O)c1cn([C@@H]2O[C@H](CO)[C@@H](O)[C@H]2O)nn1 (some centres undefined)
IC50 (CCRF-CEM): > 200 µM
IC50 (L1210): > 200 µM
IC50 (MOLT-4): > 200 µM

OC[C@H]1O[C@@H](n2cc(-c3ccccn3)nn2)[C@H](O)[C@@H]1O
IC50 (CCRF-CEM): 245 µM
IC50 (L1210): 236 µM
IC50 (MOLT-4): 170 µM

COc1ccc(-c2cn([C@@H]3O[C@H](CO)[C@@H](O)[C@H]3O)nn2)cc1
IC50 (CCRF-CEM): 73 µM
IC50 (L1210): 152 µM
IC50 (MOLT-4): 36 µM

OC[C@H]1O[C@@H](n2cc(-c3ccsc3)nn2)[C@H](O)[C@@H]1O
IC50 (CCRF-CEM): 139 µM
IC50 (L1210): 182 µM
IC50 (MOLT-4): 126 µM

CCCCCCc1cn([C@@H]2O[C@H](CO)[C@@H](O)[C@H]2O)nn1
IC50 (CCRF-CEM): > 200 µM
IC50 (L1210): > 200 µM
IC50 (MOLT-4): > 200 µM

CCCCCCCCc1cn([C@@H]2O[C@H](CO)[C@@H](O)[C@H]2O)nn1
IC50 (CCRF-CEM): 44 µM
IC50 (L1210): 56 µM
IC50 (MOLT-4): 50 µM

OCc1cn([C@@H]2O[C@H](CO)[C@@H](O)[C@H]2O)nn1
IC50 (CCRF-CEM): > 200 µM
IC50 (L1210): > 200 µM
IC50 (MOLT-4): > 200 µM

OC[C@H]1O[C@@H](n2cc(-c3ccc(F)cc3)nn2)[C@H](O)[C@@H]1O
IC50 (CCRF-CEM): 217 µM
IC50 (L1210): 209 µM
IC50 (MOLT-4): 171 µM
